Laboratory results reported in PMC10771423 (Applied Microbiology and Biotechnology, 2024).

Key:
AldOTf [1] = molecular target: T1, AldOTf (Thermopolyspora flexuosa, UniProt A0A543IX60); test: oxygen consumption (oxygen electrode), steady-state kinetics; assay type: biochemical; details: read-out: KM (mM) / Glycerol^b; 50 mM KPi pH 7.5, 25 °C, O2 as co-substrate
T1 construct: gene FHX40_1862
Description: oxygen consumption (oxygen electrode), steady-state kinetics on AldOTf

AldOTf [2] = molecular target: T1, AldOTf; test: HRP-coupled AAP/DCHBS H2O2 assay, […] nm, steady-state kinetics; assay type: biochemical; details: read-out: KM (mM) / Xylitol^a; 50 mM KPi pH 7.5, 25 °C, O2 as co-substrate

T1 sequence (A0A543IX60 entry or part of it): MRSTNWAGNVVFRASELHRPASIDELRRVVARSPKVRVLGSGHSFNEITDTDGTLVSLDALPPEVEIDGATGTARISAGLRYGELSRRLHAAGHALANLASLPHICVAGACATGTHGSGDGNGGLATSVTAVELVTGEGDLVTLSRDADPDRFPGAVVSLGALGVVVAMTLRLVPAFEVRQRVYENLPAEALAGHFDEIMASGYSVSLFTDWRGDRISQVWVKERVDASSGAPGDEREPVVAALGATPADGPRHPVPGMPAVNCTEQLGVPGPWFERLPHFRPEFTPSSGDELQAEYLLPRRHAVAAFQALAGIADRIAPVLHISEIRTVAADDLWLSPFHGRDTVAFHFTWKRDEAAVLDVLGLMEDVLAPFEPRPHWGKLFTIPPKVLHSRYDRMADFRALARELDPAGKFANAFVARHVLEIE

| Km (AldOTf [1]) | Km (AldOTf [2]) | SMILES |
| --- | --- | --- |
| 41 mM |  | OCC(O)CO [glycerol] |
|  | 0.04 mM | OC[C@@H](O)[C@H](O)[C@@H](O)CO [xylitol] |
